# Patent US20240148821A1, “PHARMACEUTICAL USE OF CYCLIC PEPTIDE COMPOUND” (CHUGAI SEIYAKU KABUSHIKI KAISHA, priority 2021, published 2024)
# Numbered stars: 1 amine (or outer) side, 2 acyl side, 3 side chain; on linkers, the order of the positions; unused ones are H or OH. Bridge positions count the residues as written; N and C are the ends. Square brackets hold non-standard residues; d marks the D form. Peptide text beside a SMILES is read from it. * marks the point of attachment. hPhe(3-Cl-4-CF3) = N[C@@H](CCc1ccc(C(F)(F)F)c(Cl)c1)C(=O)O; NMePhe(4-CF3) = CN[C@@H](Cc1ccc(C(F)(F)F)cc1)C(=O)O; 3Oxa8azabicyclo(3.2.1)octane = C1CC2COCC1N2*; NEtPhe(4-Me) = CCN[C@@H](Cc1ccc(C)cc1)C(=O)O; NMePhe(4-Cl) = CN[C@@H](Cc1ccc(Cl)cc1)C(=O)O; NMedβ3hAla = C[C@H](CC(=O)[*:2])N(C)[*:1]; NMeGly(cPent) = CN[C@H](C(=O)O)C1CCCC1; NMeCha = CN[C@@H](CC1CCCCC1)C(=O)O; Hyp = O=C(O)[C@@H]1C[C@@H](O)CN1; NMeChg = CN[C@H](C(=O)O)C1CCCCC1; NMeI = CC[C@H](C)[C@H](NC)C(=O)O; NMeD = CN[C@@H](CC(=O)O)C(=O)O; CH2CONHtBu = CC(C)(C)NC(=O)C*; NMeL = CN[C@@H](CC(C)C)C(=O)O; NMeV = CN[C@H](C(=O)O)C(C)C; d(β3hA) = C[C@@H](N)CC(=O)O; NMeS = CN[C@@H](CO)C(=O)O; Morpholide = C1CN(*)CCO1; NMeA = CN[C@@H](C)C(=O)O; Piperidide = C1CCN(*)CC1; dNMeA = CN[C@H](C)C(=O)O; Ac5c = NC1(C(=O)O)CCCC1; Aze = O=C(O)[C@@H]1CCN1; Ac4c = NC1(C(=O)O)CCC1; Sar = CNCC(=O)O; Propyl = CCC*
# Assays:
# [1] = test system: Human pancreatic cancer cell line AsPC-1 (G12D mutation Kras); experiment: AsPC-1 cell growth inhibition (AsPC-1 CGI); format: cell-based; conditions: read-out: AsPC-1 cell growth inhibition, 50% growth inhibitory concentration (IC50 value); 96 hours, CellTiter-Glo, values classified in ranges
# Experimental: Test compounds were serially dilated with dimethyl sulfoxide, and 200 nL was then dispensed to a U-bottom 96-well plate using Labcyte Echo. […] The cell suspension was dispensed to a. plate containing a test compound at 100 μL per well and incubated at 37° C. in a 5% carbon dioxide gas incubator. 96 hours later, 80 μL of CellTiter-Glo (Promega) was added to each well and fluorescence was measured.
# [2] = target: protein-protein interaction between Kras and SOS1 (biotin-tagged human Kras loaded with GDP, His-tagged human SOS1) (Homo sapiens (Human), UniProt P01116, G12D); experiment: Protein-protein interaction inhibition between Kras and SOS1 (KrasG12D-SOS PPI) using AlphaScreen; format: biochemical; conditions: AlphaScreen; biotin-tagged human Kras loaded with GDP, His-tagged human SOS1; read-out: KRAS G12D-SOS PPI IC50;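 also: kras produced in E. coli, Ni-coupled donor beads and streptavidin acceptor beads, excitation 680 nm with emission detected at 520–620 nm via singlet oxygen transfer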
Compound,IC50 [1] [nM],IC50 [2] [nM]
CCCOC[C@H]1C(=O)NC2(CCCC2)C(=O)N(C)[C@@H](C2CCCCC2)C(=O)N(C)[C@H](C(=O)N2CCCCC2)CC(=O)N(C)[C@@H](CC(C)C)C(=O)N[C@@H]([C@@H](C)CC)C(=O)N(C)CC(=O)N(C)CC(=O)N(C)[C@@H](CC2CCCCC2)C(=O)N(C)CC(=O)N[C@@H](CCc2ccc(C(F)(F)F)c(Cl)c2)C(=O)N1C [Compound 692] ([NMeL]I[Sar][Sar][NMeCha][Sar][hPhe(3-Cl-4-CF3)][NMeS](Propyl)[Ac5c][NMeChg][NMeD]-Piperidide; lactam N-11),> 500,6.9
CCCOC[C@H]1C(=O)N(C)CC(=O)N[C@@H](CCc2ccc(C(F)(F)F)c(Cl)c2)C(=O)N2CCC[C@H]2C(=O)NC2(CCCC2)C(=O)N(C)[C@@H]([C@@H](C)CC)C(=O)N(C)[C@H](C(=O)N2CCOCC2)CC(=O)N(C)[C@@H](CC(C)C)C(=O)N[C@@H]([C@@H](C)CC)C(=O)N(C)[C@@H](C)C(=O)N2CC[C@H]2C(=O)N1C [Compound 693] ([NMeL]I[NMeA][Aze][NMeS](Propyl)[Sar][hPhe(3-Cl-4-CF3)]P[Ac5c][NMeI][NMeD]-Morpholide; lactam N-11),≤ 20,1.6
CCO[C@@H]1C[C@H]2C(=O)NC3(CCCC3)C(=O)N(C)[C@@H]([C@@H](C)CC)C(=O)N(C)[C@H](C)CC(=O)N(C)[C@@H](CC(C)C)C(=O)N[C@@H]([C@@H](C)CC)C(=O)N(C)CC(=O)N(C)CC(=O)N(C)[C@@H](Cc3ccc(C(F)(F)F)cc3)C(=O)N(C)CC(=O)N[C@@H](CCc3ccc(C(F)(F)F)c(Cl)c3)C(=O)N2C1 [Compound 695] (cyclo([Ac5c][NMeI][NMedβ3hAla][NMeL]I[Sar][Sar][NMePhe(4-CF3)][Sar][hPhe(3-Cl-4-CF3)][Hyp](Et))),≤ 20,2.3
CC[C@H](C)[C@@H]1NC(=O)[C@H](CC(C)C)N(C)C(=O)C[C@@H](C(=O)N2CCCCC2)N(C)C(=O)[C@H](C(C)C)N(C)C(=O)C2(CCCC2)NC(=O)[C@@H]2CCCN2C(=O)[C@H](CCc2ccc(C(F)(F)F)c(Cl)c2)NC(=O)CN(C)C(=O)[C@H](CC2CCCCC2)N(C)C(=O)[C@@H]2CCN2C(=O)[C@@H]2CCCN2C1=O [Compound 709] ([NMeL]IP[Aze][NMeCha][Sar][hPhe(3-Cl-4-CF3)]P[Ac5c][NMeV][NMeD]-Piperidide; lactam N-11),> 500,41
CCO[C@@H]1C[C@H]2C(=O)NC3(CCC3)C(=O)N(C)[C@@H](C3CCCC3)C(=O)N(C)[C@H](C)CC(=O)N(C)[C@@H](CC(C)C)C(=O)N[C@@H]([C@@H](C)CC)C(=O)N(C)[C@@H](C)C(=O)N3CC[C@H]3C(=O)N(CC)[C@@H](Cc3ccc(C)cc3)C(=O)N(C)CC(=O)N[C@@H](CCc3ccc(C(F)(F)F)c(Cl)c3)C(=O)N2C1 [Compound 713] (cyclo([Ac4c][NMeGly(cPent)][NMedβ3hAla][NMeL]I[NMeA][Aze][NEtPhe(4-Me)][Sar][hPhe(3-Cl-4-CF3)][Hyp](Et))),≤ 20,4
CC[C@H](C)[C@@H]1NC(=O)[C@H](C)N(C)C(=O)C[C@@H](C(=O)N2CCCCC2)N(C)C(=O)[C@H](C(C)C)N(C)C(=O)C2(CCCC2)NC(=O)[C@H](Cc2ccc(Cl)cc2)N(C)C(=O)[C@H](CCc2ccc(C(F)(F)F)c(Cl)c2)NC(=O)CN(C)C(=O)[C@H](CC2CCCCC2)N(C)C(=O)CN(C)C(=O)CN(C)C1=O [Compound 718] ([NMeA]I[Sar][Sar][NMeCha][Sar][hPhe(3-Cl-4-CF3)][NMePhe(4-Cl)][Ac5c][NMeV][NMeD]-Piperidide; lactam N-11),> 500,39
CC[C@H](C)[C@@H]1NC(=O)[C@H](C)N(C)C(=O)C[C@@H](C)NC(=O)[C@H](C2CCCC2)N(C)C(=O)C2(CCCC2)NC(=O)[C@@H]2CCCN2C(=O)[C@H](CCc2ccc(C(F)(F)F)c(Cl)c2)NC(=O)[C@@H](C)N(C)C(=O)[C@H](Cc2ccc(Cl)cc2)N(C)C(=O)[C@@H]2CCN2C(=O)[C@H](C)N(C)C1=O [Compound 720] (cyclo([Ac5c][NMeGly(cPent)][d(β3hA)][NMeA]I[NMeA][Aze][NMePhe(4-Cl)][dNMeA][hPhe(3-Cl-4-CF3)]P)),> 500,39
CC[C@H](C)[C@@H]1NC(=O)[C@H](CC(C)C)N(C)C(=O)C[C@@H](C(=O)N2C3CCC2COC3)N(C)C(=O)[C@H](C2CCCC2)N(C)C(=O)C2(CCCC2)NC(=O)[C@@H]2CCCN2C(=O)[C@H](CCc2ccc(C(F)(F)F)c(Cl)c2)NC(=O)CN(C)C(=O)[C@H](C2CCCC2)N(C)C(=O)[C@@H]2CCN2C(=O)[C@H](C)N(C)C1=O [Compound 721] ([NMeL]I[NMeA][Aze][NMeGly(cPent)][Sar][hPhe(3-Cl-4-CF3)]P[Ac5c][NMeGly(cPent)][NMeD]-{3Oxa8azabicyclo(3.2.1)octane}; lactam N-11),≤ 20,1.5
CC[C@H](C)[C@@H]1NC(=O)[C@H](CC(C)C)N(C)C(=O)C[C@@H](C(=O)N2CCCCC2)N(C)C(=O)[C@H](C2CCCCC2)N(C)C(=O)C2(CCCC2)NC(=O)[C@H](COCC(=O)NC(C)(C)C)N(C)C(=O)[C@H](CCc2ccc(C(F)(F)F)c(Cl)c2)NC(=O)CN(C)C(=O)[C@H](CC2CCCCC2)N(C)C(=O)CN(C)C(=O)CN(C)C1=O [Compound 727] ([NMeL]I[Sar][Sar][NMeCha][Sar][hPhe(3-Cl-4-CF3)][NMeS](CH2CONHtBu)[Ac5c][NMeChg][NMeD]-Piperidide; lactam N-11),> 500,6.9
